# Assay results from patent US20190269666A1, “COMBINATION THERAPY WITH MERESTINIB AND ANTI-PD-L1 OR ANTI-PD-1 INHIBITORS FOR USE IN THE TREATMENT OF CANCER” (Eli Lilly and Company, priority 2016, published 2019).
# Tested on: CT26 colorectal cancer model
# Test: Study S082015: single agent merestinib in CT26 syngeneic mouse tumor model
# Assay type: in vivo
# Settings: for Body weight change from baseline (%) / T/C %: Day 26
# Experimental: A syngeneic mouse tumor model is used to evaluate potential combination effect of merestinib and anti-PD-L1 antibody is the CT26 colorectal cancer model using the mouse colorectal cancer line CT26. This experiment is conducted in immune competent mice (Grosso and Jure-Kunkel, Cancer Immunity Vol. 13, p. 5, January 2013; Duraiswamy et al, Cancer Research, Jun. 15, 2013 73; 3591.). Anti-PD-L1 antibody surrogate (178G7, LSN3370181) (Eppihimer et al. Microcirculation 2002:9(2):133) is used in the mouse study.
# Female BALB/c mice (18-20 gm) from Envigo (Harlan Laboratories) are used for this study. Food and water are available ad libitum. Animals are acclimated for one week prior to any experimental manipulation. The study is performed in accordance with AALAC accredited institutional guidelines.
# Merestinib is formulated as a solution in 10% PEG 400 in 90% (20% Captisol in water) once weekly. Anti-PD-L1 antibody (178G7, LSN3370181) is formulated in PBS (phosphate buffered saline).
# CT26 cells (from internal in vivo pharmacology cell culture group lot CT26.WT.3184878) are used for implantation. Approximately 1×10^6 cells in HBSS are implanted subcutaneously into the right hind flank of the animal under anesthesia.
# Study S082015 has four groups: 1) vehicle control (10% PEG 400 in 90% [20% Captisol in water]) dosed orally once daily for 21 days; 2) single agent merestinib at 6 mg/kg once daily orally for 21 days; 3) single agent merestinib at 12 mg/kg once daily orally for 21 days; 4) single agent merestinib at 24 mg/kg once daily orally for 21 days. Dosing of merestinib is initiated at Day 6 post-implant of the CT26 cells. There are 15 animals per group. Five animals per group are taken down on Day 13 and on Day 20 post-implant of CT26 cells for the harvesting of spleens and tumors for the interrogation of the effect of merestinib on immune functions. Five animals per group remain to the end of the study (Day 26). Tumor volumes and body weight are measured bi-weekly. Tumor volume is estimated by using the formula: v=l×w2×0.536 where l=larger of measured diameter and w=smaller of perpendicular diameter. At the end of the study, animals are sacrificed using CO2 and cervical dislocation.
# Tumor volume is transformed to the log scale to equalize variance across time and treatment groups. The log volume data are analyzed with a two-way repeated measures analysis of variance by time and treatment using the MIXED procedures in SAS software (Version 9.3). The correlation model for the repeated measures is spatial power. Treated groups are compared to the control group at each time point. The MIXED procedure is also used separately for each treatment group to calculate least squares means and standard errors at each time point. Both analyses account for the autocorrelation within each animal and the loss of data that occurs when animals are removed or lost before Day 33.
smiles,measurement,setting,value
"Cc1ccc(C(=O)Nc2ccc(Oc3cc4cnn(C)c4cc3-c3cn[nH]c3)c(F)c2)c(=O)n1-c1ccc(F)cc1 [merestinib, N-(3-fluoro-4-(1-methyl-6-(1H-pyrazol-4-yl)-1H-indazol-5-yloxy)phenyl)-1-(4-fluorophenyl)-6-methyl-2-oxo-1,2-dihydropyridine-3-carboxamide]",Body weight change from baseline (%),6 mg/kg once daily orally,5.7%
same,T/C %,6 mg/kg once daily orally,52.8%
same,Body weight change from baseline (%),12 mg/kg once daily orally,3.4%
same,T/C %,12 mg/kg once daily orally,34.8%
same,anti-tumor effect,24 mg/kg dose,tumor stasis
same,Body weight change from baseline (%),24 mg/kg once daily orally,3.0%
same,T/C %,24 mg/kg once daily orally,13.4%
same,anti-tumor effect as compared to vehicle control,"6, 12, 24 mg/kg once daily orally",significant anti-tumor effect
same,tolerability,"all three doses (6, 12, 24 mg/kg), no significant loss in body weight",well tolerated
